Experimental data as given in patent publication US6924300B2, “Oxyiminoalkanoic acid derivatives” (Takeda Chemical Industries, Ltd., priority 1998, dated 2005).
Where two headings read alike, the source gives them in different places.

Assays:
KKA^y mice = assay: Hypoglycemic and hypolipidemic actions in mice (test compound in diet, plasma glucose and triglyceride); assay type: in vivo; settings: Mus musculus, feed or water, 96 h, 4 days, compared with non-treatment group
Method: A test compound was added to a powdered diet (CE-2, Clea Japan Inc.) at a concentration of 0.01%, and the diet was given ad libitum to KKA^y mice (9 to 12 weeks old, 5 animals in a group), a model of obese Type II diabetes mellitus (non-insulin dependent diabetes mellitus), for 4 days. During this period, water was given ad libitum. Blood was sampled from orbital venous plexus and plasma glucose and triglyceride levels were determined enzymatically using L type Wako Glu2 (Wako Pure Chemical In. Ltd.) and Iatro-MA701 TG kit (Iatron Laboratories Inc.) or L type Wako TG.H (Wako Pure Chemical Ind. Ltd.), respectively.
The value of each treatment group is represented as % reduction when compared with the non-treatment group, and summarized in Table 1.

[1] = 0.01% in diet, plasma triglyceride, Iatro-MA701 TG kit, read-out: Hypotriglyceridemic effect (% reduction)
[2] = 0.01% in powdered diet, plasma glucose, read-out: Hypoglycemic effect (% reduction)

Compound | inhibition in vivo at 0.01 % (KKA^y mice; [1]) [%] | inhibition in vivo at 0.01 % (KKA^y mice; [2]) [%] | melting point [°C]
Cc1oc(-c2ccccc2)nc1COc1ccc(CO/N=C(\C(=O)O)c2ccccc2)cc1 [Example 1, Z-2-[4-(5-methyl-2-phenyl-4-oxazolylmethoxy)benzyloxyimino]-2-phenylacetic acid] | 35 | 36 | 
Cc1oc(-c2ccccc2)nc1COc1ccc(CO/N=C(\CCC(=O)O)c2ccccc2)cc1 [Example 7, E-4-[4-(5-methyl-2-phenyl-4-oxazolylmethoxy)benzyloxyimino]-4-phenylbutyric acid] | 61 | 42 | 
Cc1oc(-c2ccccc2)nc1COc1ccc(CO/N=C(\C(=O)O)c2ccc(Br)cc2)cc1 [Example 10, Z-2-(4-bromophenyl)-2-[4-(5-methyl-2-phenyl-4-oxazolylmethoxy)benzyloxyimino]acetic acid] | 45 | 36 | 
Cc1oc(-c2ccccc2)nc1COc1ccc(CO/N=C(/CCC(N)=O)c2ccccc2)cc1 [Example 139, Z-4-[4-(5-methyl-2-phenyl-4-oxazolylmethoxy)benzyloxyimino]-4-phenylbutanamide] |  |  | 110 to 112
Cc1oc(-c2ccccc2)nc1COc1ccc(CO/N=C(\CCCC(C)(C)C(=O)O)c2ccccc2)cc1 [Example 141, E-2,2-dimethyl-6-[4-(5-methyl-2-phenyl-4-oxazolylmethoxy)benzyloxyimino]-6-phenylhexanoic acid] |  |  | 111 to 112
Cc1oc(-c2ccccc2)nc1COc1ccc(CO/N=C(\CCCCC(=O)NS(C)(=O)=O)c2ccccc2)cc1 [Example 142, E-N-methanesulfonyl-6-[4-(5-methyl-2-phenyl-4-oxazolylmethoxy)benzyloxyimino]-6-phenylhexanamide] |  |  | 130 to 132
Cc1oc(-c2ccccc2)nc1COc1ccccc1CO/N=C(\CCC(=O)O)c1ccccc1 [Example 144, E-4-[2-(5-methyl-2-phenyl-4-oxazolylmethoxy)benzyloxyimino]-4-phenylbutyric acid] |  |  | 116 to 117
COc1cc(CO/N=C(\CCC(=O)O)c2ccccc2)cc(OC)c1OCc1nc(-c2ccccc2)oc1C [Example 146, E-4-[3,5-dimethoxy-4-(5-methyl-2-phenyl-4-oxazolylmethoxy)benzyloxyimino]-4-phenylbutyric acid] |  |  | 89 to 90
COC(=O)CC/C(=N\OCc1ccc(OCc2nc(-c3ccco3)oc2C)c(OC)c1)c1ccccc1 [Example 147, methyl E-4-[4-[2-(2-furyl)-5-methyl-4-oxazolylmethoxy]-3-methoxybenzyloxyimino]-4-phenylbutyrate] |  |  | 67 to 69
COc1cc(CO/N=C(\CCC(=O)O)c2ccccc2)ccc1OCc1nc(-c2ccco2)oc1C [Example 148, E-4-[4-[2-(2-furyl)-5-methyl-4-oxazolylmethoxy]-3-methoxybenzyloxyimino]-4-phenylbutyric acid] |  |  | 131 to 132
COC(=O)CC/C(=N\OCc1ccc(OCc2nc(-c3ccccc3)oc2C)c(OC)c1)c1ccccc1 [Example 149, methyl E-4-[3-methoxy-4-(5-methyl-2-phenyl-4-oxazolylmethoxy)benzyloxyimino]-4-phenylbutyrate] |  |  | 112 to 114
COc1cc(CO/N=C(\CCC(=O)O)c2ccccc2)ccc1OCc1nc(-c2ccccc2)oc1C [Example 150, E-4-[3-methoxy-4-(5-methyl-2-phenyl-4-oxazolylmethoxy)benzyloxyimino]-4-phenylbutyric acid] |  |  | 134 to 135
